The record followed here is ChEMBL document CHEMBL1123341, “Thromboxane A2 synthase inhibitors. 5-(3-Pyridylmethyl)benzofuran-2-carboxylic acids” (J Med Chem, 1986).

In test [1] the target is T1, Thromboxane-A synthase (Homo sapiens) (UniProt P24557).
T1 sequence (whole entry): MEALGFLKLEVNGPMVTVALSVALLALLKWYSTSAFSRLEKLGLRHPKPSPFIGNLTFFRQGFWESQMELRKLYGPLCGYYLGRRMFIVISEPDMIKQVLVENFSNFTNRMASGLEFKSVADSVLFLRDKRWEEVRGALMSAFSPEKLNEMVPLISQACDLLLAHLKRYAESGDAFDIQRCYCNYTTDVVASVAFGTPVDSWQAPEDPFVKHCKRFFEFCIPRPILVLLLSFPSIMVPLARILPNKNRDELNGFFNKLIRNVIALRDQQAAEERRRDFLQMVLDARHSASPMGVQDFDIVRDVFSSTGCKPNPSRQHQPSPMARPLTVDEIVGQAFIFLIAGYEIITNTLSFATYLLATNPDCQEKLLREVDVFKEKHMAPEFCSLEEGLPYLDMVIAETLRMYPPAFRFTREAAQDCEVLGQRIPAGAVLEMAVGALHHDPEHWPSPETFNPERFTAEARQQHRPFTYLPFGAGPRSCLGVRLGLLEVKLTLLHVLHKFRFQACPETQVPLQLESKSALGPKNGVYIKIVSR
Briefly: In vitro inhibition of TXA2 biosynthesis in human microsomal platelets relative to Sodium Furegrelate. The class given is functional, microsomes. The following applies: Microsome.

Test [2] has as its target T1, Thromboxane-A synthase (Homo sapiens). Briefly: In vitro inhibition of TXA2 biosynthesis in human microsomal platelets. It counts as functional, microsomes. Conditions: Microsome.
The target is the same in test [3]. In words: Compound was tested in vitro for its ability to inhibit TXA2 biosynthesis in human microsomal platelets. Conditions: Microsome. The class given is functional, microsomes.
For test [4] the target is unchanged. Briefly: Compound was tested for thromboxane synthase activity in microsomal preparations from human platelets(HPM). It counts as functional.
In test [5] the test system is Thromboxane-A synthase (Canis lupus familiaris). In words: Compound was tested for thromboxane synthase activity in microsomal preparations from dog lung(DLM).
For test [6], the system named is Thromboxane-A synthase (Cavia porcellus). In words: Compound was tested for thromboxane synthase activity in microsomal preparations from guinea pig lung(GPLM).

SMILES strings stand for the structures. Values after ≈ are worked out from the molar mass of the structure shown.

`O=C(O)c1cc2cc(CCc3cccnc3)ccc2o1`: in test [1], the Relative potency stood at 0.003. The ED50 in test [2] was found to be 3 µg/mL (≈ 11.2 µM).

On to `COc1cc(Cc2cccnc2)cc2cc(C(=O)O)oc12`, for which the Relative potency in test [1] was 0.3. In addition, the ED50 in test [2] stood at 0.03 µg/mL (≈ 0.106 µM).

In test [1], `O=C(O)c1cc2ccc(CCc3cccnc3)cc2o1` had a Relative potency of 0.003. The same compound came in with an ED50 in test [2] of 3 µg/mL (≈ 11.2 µM).

On to `O=C(O)c1cc2cc(Cc3ccc[n+]([O-])c3)ccc2o1`, for which, in test [3], the ED50 is above 10 µg/mL and the Relative potency is below 0.001.

Compound `O=C(O)c1cc2cc(Cc3cnccc3Cl)ccc2o1` had a Relative potency in test [1] below 0.0001. In test [2], this compound registered an ED50 above 10 µg/mL.

Turning to `O=C(O)c1cc2cc(Cc3cccnc3)cc(Br)c2o1`, in test [1], the Relative potency is 0.3. This compound also came in with an ED50 in test [2] of 0.03 µg/mL (≈ 0.0903 µM).

In test [1], `NC(=O)c1cc2cc(Cc3cccnc3)ccc2o1` had a Relative potency of 0.003. In test [2], this compound gave an ED50 of 0.3 µg/mL (≈ 1.19 µM).

For `Cc1cc(Cc2cccnc2)cc2cc(C(=O)O)oc12`, the Relative potency in test [1] came to 0.3. The compound also displayed an ED50 in test [2] of 0.03 µg/mL (≈ 0.112 µM).

Turning to `O=C(O)c1cc2cc(Cc3ccc(Cl)nc3)ccc2o1`, in test [3], the ED50 was above 10 µg/mL and the Relative potency is below 0.001.

In the case of `O=C(O)c1cc2cc(Cc3cccnc3)ccc2o1`, the ED50 in test [2] and in test [4] was 0.01 µg/mL (≈ 0.0395 µM) each time.

In test [3], `CCCCC[C@H](O)/C=C/[C@H]1C2CC(N=N2)[C@@H]1C/C=C\CCCC(=O)O` (some centres not stated) came in with an ED50 of 0.03 µg/mL (≈ 0.0861 µM) and a Relative potency of 0.3.

`C/C(=C\c1ccc(Cc2cccnc2)cc1)C(=O)O` returned a Relative potency in test [1] of 0.3. Also, the ED50 in test [5] came out at 0.003 µg/mL (≈ 0.0118 µM); in test [2], 0.03 µg/mL (≈ 0.118 µM); in test [4], 0.03 µg/mL (≈ 0.118 µM); in test [6], 0.2 µg/mL (≈ 0.79 µM).

With `O=C(O)c1cc2cc(Cc3cccnc3Cl)ccc2o1`, in test [3], the ED50 was 0.1 µg/mL (≈ 0.348 µM) and the Relative potency stood at 0.1.

In turn, `O=C(c1cccnc1)c1ccc2oc(C(=O)O)cc2c1` yielded a Relative potency in test [1] of 0.003. The compound further registered an ED50 in test [2] of 3 µg/mL (≈ 11.2 µM).

`O=C(O)c1cc2cc(-c3cccnc3)ccc2o1` returned a Relative potency in test [1] of 0.3. The same compound registered an ED50 in test [2] of 0.03 µg/mL (≈ 0.125 µM).

`Cc1c(C(=O)O)oc2ccc(Cc3cccnc3)cc12` registered a Relative potency in test [1] of 0.3. In addition, the ED50 in test [2] was determined as 0.03 µg/mL (≈ 0.112 µM).

As for `O=C(O)c1cc2ccc(Cc3cccnc3)cc2o1`, the Relative potency in test [1] came to 0.3. The same compound came in with an ED50 in test [2] of 0.03 µg/mL (≈ 0.118 µM).
